Columns and labels:
[1] = system: HCT116 human colon carcinoma xenograft; assay: HCT116 xenograft model in nude mice (hypoxic tumor); type: in vivo; conditions: for efficacy at slowing tumor growth in HCT116 (high hypoxia) versus 786O (low hypoxia) tumors: comparison of HCT116 and 786O xenografts in nude mice
Description: Human tumor cell lines HCT116 (ATCC #CRL-247; Schroy P C, et al. Cancer 76: 201-209, 1995) and 786-O (ATCC #CRL-1932; Williams R D, et al. In Vitro 12: 623-627, 1976), were obtained from the American Type Culture Collection (Manassus, Va., USA) were cultured using routine methods until a sufficient number of cells were obtained for implantation. Studies were conducted on animals between 7 and 12 weeks of age at implantation. To implant HCT116 tumor cells into nude mice, the cells were trypsinized, washed in PBS and resuspended at a concentration of 75×10^6 cells/ml in McCoy's modified medium with 50% of BD Matrigel® Basement Membrane Matrix (BD Biosciences®, Bedford, Mass., USA). To implant 786-O tumor cells into nude mice, the cells were trypsinized as above, washed in PBS and resuspended at a concentration of 75×10^6 cells/ml in RPMI 1640 medium with 50% of BD Matrigel® Basement Membrane Matrix. Using a 27 gauge needle and 1 cc syringe, 0.1 ml of the cell suspension was injected into the corpus adiposum of nude mice. […] The location permits palpation and measurement of the tumors using external calipers. Tumor volumes (V) were calculated by caliper measurement of the width (W), length (L) and thickness (T) of tumors using the following formula: V=0.5236×(L×W×T).
As above, HCT116 and 786-O cells were cultured and implanted into nude mice using the methods in the previous example. Tumor growth was measured using calipers.
Tumor volume was monitored throughout the course of the study, until up to about 40 days from the date of tumor implantation. The exact number of days of the study depended on a number of factors including, for example, the number of days from implantation for the tumors to reach the desired volume.

[2] = system: solid tumors; conditions: once-weekly dosing, evaluable patients; cited from earlier work
[3] = system: advanced relapsed/refractory NSCLC; conditions: cited from earlier work
[4] = system: gastrointestinal stromal tumor (GIST); conditions: cited from earlier work
[5] = system: GIST following progression on or intolerance to imatinib; conditions: 50 mg once daily Schedule 4/2; 5 of 55 patients; cited from earlier work
[6] = system: treatment-naïve RCC; conditions: cited from earlier work
[7] = target: JAK2V617F (Homo sapiens, UniProt O60674, V617F); conditions: cited from earlier work
[8] = system: locally advanced or metastatic NSCLC; conditions: erlotinib 150 mg orally once daily; cited from earlier work
[9] = system: locally advanced or metastatic NSCLC; conditions: maintenance, erlotinib 150 mg once daily; difference not statistically significant; cited from earlier work
[10] = system: locally advanced, unresectable or metastatic pancreatic cancer; conditions: 100 mg cohort, arms: gemcitabine plus erlotinib vs gemcitabine alone, cited from earlier work
[11] = system: EGFR-expressing, metastatic carcinoma of the colon or rectum (mCRC); conditions: panitumumab 6 mg/kg every two weeks plus best supportive care; cited from earlier work
[12] = system: metastatic colorectal cancer; conditions: bevacizumab and chemotherapy vs bevacizumab and chemotherapy alone, cited from earlier work

Sequence of JAK2V617F (O60674 whole entry V617F): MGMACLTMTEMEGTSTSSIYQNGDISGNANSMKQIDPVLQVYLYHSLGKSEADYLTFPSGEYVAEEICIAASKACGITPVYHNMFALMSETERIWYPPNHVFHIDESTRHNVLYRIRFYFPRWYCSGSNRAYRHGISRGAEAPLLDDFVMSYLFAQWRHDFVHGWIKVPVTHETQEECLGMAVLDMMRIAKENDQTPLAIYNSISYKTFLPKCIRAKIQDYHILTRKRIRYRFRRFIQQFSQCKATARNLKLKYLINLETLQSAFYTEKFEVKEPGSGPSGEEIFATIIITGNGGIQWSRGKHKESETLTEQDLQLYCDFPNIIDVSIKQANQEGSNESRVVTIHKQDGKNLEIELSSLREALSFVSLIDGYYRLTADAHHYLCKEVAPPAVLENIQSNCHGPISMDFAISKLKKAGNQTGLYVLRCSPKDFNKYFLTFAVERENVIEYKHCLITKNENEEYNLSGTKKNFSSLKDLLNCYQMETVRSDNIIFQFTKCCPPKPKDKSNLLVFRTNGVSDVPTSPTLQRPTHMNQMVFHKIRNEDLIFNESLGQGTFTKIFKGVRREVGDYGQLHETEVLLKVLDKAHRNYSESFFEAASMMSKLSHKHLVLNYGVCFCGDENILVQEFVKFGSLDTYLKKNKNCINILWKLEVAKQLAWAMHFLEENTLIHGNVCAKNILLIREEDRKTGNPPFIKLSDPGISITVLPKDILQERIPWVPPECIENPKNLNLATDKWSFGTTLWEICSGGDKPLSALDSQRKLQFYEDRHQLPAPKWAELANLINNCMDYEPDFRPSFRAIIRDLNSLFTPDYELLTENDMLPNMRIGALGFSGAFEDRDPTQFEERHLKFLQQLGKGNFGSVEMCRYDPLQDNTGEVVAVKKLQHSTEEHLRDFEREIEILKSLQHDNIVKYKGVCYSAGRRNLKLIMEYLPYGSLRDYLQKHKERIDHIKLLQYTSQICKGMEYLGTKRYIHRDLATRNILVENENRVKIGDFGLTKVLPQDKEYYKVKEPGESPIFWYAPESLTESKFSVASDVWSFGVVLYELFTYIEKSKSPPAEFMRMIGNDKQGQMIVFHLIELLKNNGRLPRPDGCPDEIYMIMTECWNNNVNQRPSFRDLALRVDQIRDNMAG

Molecule: CC(C)c1cc(-c2nnc(O)n2-c2ccc3c(ccn3C)c2)c(O)cc1O [ganetespib]
- efficacy at slowing tumor growth in HCT116 (high hypoxia) versus 786O (low hypoxia) tumors [1]: not found to work better in the tumors with a higher level of hypoxia
- disease control [2]: more than half of all evaluable patients experienced disease control
- disease control rate ([3]; broad population, single agent): 54%
- patients with durable, objective responses ([3]; patients with ALK rearrangement, four of eight): 50%
- patients who received ganetespib for 16 weeks or more ([3]; patients with ALK rearrangement, seven of eight): 88%
- patients with tumor shrinkage ([3]; patients with ALK rearrangement, six of eight): 75%

Molecule: CCN(CC)CCNC(=O)c1c(C)[nH]c(/C=C2\C(=O)Nc3ccc(F)cc32)c1C [sunitinib]
- efficacy at slowing tumor growth in HCT116 (high hypoxia) versus 786O (low hypoxia) tumors [1]: not found to work better in the tumors with a higher level of hypoxia
- median OS ([4]; final analysis, sunitinib arm): 72.7 weeks
- time to tumor progression (TTP) versus placebo ([4]; interim analysis, 50 mg once daily Schedule 4/2): statistically significant advantage for sunitinib over placebo in TTP
- OS HR ([4]; sunitinib vs placebo, final analysis): 0.876
- PR rate [5]: 9.1%
- PFS versus IFN-α ([6]; 50 mg sunitinib once daily Schedule 4/2): statistically significant advantage for sunitinib over IFN-α in the endpoint of PFS
- median OS ([6]; final analysis, arms: sunitinib vs IFN-α): 114.6 weeks
- ORR versus IFN-α arm ([6]; in vivo): higher

Molecule: C#Cc1cccc(Nc2ncnc3cc(OCCOC)c(OCCOC)cc23)c1 [erlotinib]
- efficacy at slowing tumor growth in HCT116 (high hypoxia) versus 786O (low hypoxia) tumors [1]: more effective at slowing tumor growth in tumors with high levels of hypoxia
- tumor growth rate versus control ([1]; erlotinib 1x/week P.O., p=0.0224): reduced the growth rate of the tumor as compared to control
- JAK2V617F activity [7]: potent inhibitor of JAK2V617F activity
- median response duration [8]: 34.3 weeks
- progression free survival [8]: 9.9 weeks
- survival [8]: 6.7 months
- tumor response [8]: 8.9%
- overall survival [9]: 12 weeks
- progression free survival ([10]; p=0.006): 3.8 months
- survival ([10]; p=0.028): 6.4 months

Molecule: panitumumab: recombinant, human IgG2 kappa monoclonal antibody that binds to the human EGFR
- efficacy at slowing tumor growth in HCT116 (high hypoxia) versus 786O (low hypoxia) tumors [1]: not found to work better in the tumors with a higher level of hypoxia
- PFS [11]: 96 days
- median PFS ([12]; oxaliplatin stratum, arms: panitumumab): 8.8 months
- PFS hazard ratio ([12]; panitumumab, p-value=0.0024): 1.44
